According to patent US20230065953A1, “NOVEL HETEROARYL-TRIAZOLE COMPOUNDS AS PESTICIDES” (Bayer Aktiengesellschaft, priority 2019, published 2023):

Columns and labels:
Format in all cases: in vivo
[1] = test system: Rhipicephalus microplus larvae (strain Parkhurst, resistant against synthetic pyrethroids); test: Rhipicephalus (Boophilus) microplus in-vitro contact test, larval cattle tick; conditions: 5 μg/cm^2 (=500 g/ha), after 48 hours, read-out: efficacy (larvae dead or moribund)
Outline: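 After drying, 20-50 larvae were held per tube at 27° C., 85% relative humidity for 48 h, and efficacy was scored as % dead or moribund.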

[2] = test system: cattle ticks (Rhipicephalus microplus) strain Parkhurst, SP-resistant; test: Rhipicephalus (Boophilus) microplus dip test; conditions: 100 ppm, egg deposition after 7 days
Procedure: Rhipicephalus (Boophilus) Microplus—Dip Test
Test animal: cattle ticks (Rhipicephalus microplus) strain Parkhurst, SP-resistant
Solvent: dimethyl sulfoxide
To produce a suitable preparation of active compound, 10 mg of active compound are dissolved in 0.5 mL solvent, and the concentrate is diluted with water to the desired concentration.
This compound solution is pipetted into tubes. 8-10 engorged, adult, female cattle ticks (Rhipicephalus microplus) are placed in perforated tubes. These tubes are immersed in the aqueous compound solution until the ticks are completely moistened. After the liquid has drained off, the ticks are transferred to a filter paper in a plastic tray and stored in a climate chamber.
After 7 days egg deposition of fertile eggs is monitored. Eggs where fertility is not visible are stored in a climate chamber till hatching after about 42 days. An efficacy of 100% means all eggs are infertile; 0% means all eggs are fertile.

[3] = test system: adult engorged female ticks (Rhipicephalus microplus); test: Rhipicephalus (Boophilus) microplus injection test; conditions: 168 h, 4 μg/animal, egg deposition after 7 days, read-out: efficacy (infertile eggs)
Outline: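 Five adult engorged female ticks each injected into the abdomen with 1 μL of compound in DMSO, then kept in a climate chamber. Fertile egg deposition assessed after 7 days, with unclear eggs held until hatching around 42 days; efficacy 100% means all eggs infertile, 0% all fertile.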

[4] = test system: adult unfed cat fleas (Ctenocephalides felis); test: Ctenocephalides felis oral test; conditions: 48 h
Outline: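 About 20 adult unfed fleas fed through parafilm on cattle blood containing compound (DMSO stock diluted in blood), blood held at 37 °C and fleas at room temperature. Mortality (%) scored after 2 days.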

[5] = test system: adult brown dog ticks (Rhipicephalus sanguineus); test: Rhipicephalus sanguineus in-vitro contact test with adult brown dog ticks; conditions: 5 μg/cm^2 (=500 g/ha), after 48 hours, read-out: efficacy (ticks dead or moribund)
Procedure: Rhipicephalus sanguineus—In-Vitro Contact Tests with Adult Brown Dog Ticks
9 mg compound is solved in 1 mL acetone and diluted with acetone to the desired concentration. 250 μL of the test solution is filled in 25 mL glass test tubes and homogeneously distributed on the inner walls by rotation and tilting on a shaking device (2 h at 30 rpm). With a compound concentration of 900 ppm, an inner surface of 44.7 cm^2 and a homogeneous distribution, a dose of 5 μg/cm^2 is achieved.
After the solvent has evaporated, each test tube is filled with 5-10 adult brown dog ticks (Rhipicephalus sanguineus), closed with a perforated lid and incubated in a lying position at room temperature and relative humidity. After 48 hours efficacy is determined. The ticks are patted on the ground of the tubes and are incubated on a heating plate at 45-50° C. for at most 5 minutes. Immotile or uncoordinated moving ticks, which are not able to escape the heat by climbing upwards, are marked as dead or moribund.
An efficacy of 100% means all ticks are dead or moribund; 0% means no ticks are dead or moribund.

[6] = test system: larvae of the banded cucumber beetle (Diabrotica balteata); test: Diabrotica balteata spray test; conditions: 168 h, 100 g/ha (=32 μg/well), wheat seeds, after 7 days, read-out: efficacy (seedling growth)
Outline: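 Efficacy in % was read 7 days after infesting with 10-20 larvae per unit. Before infestation, 1-day-germinated wheat seedlings (5 per well) were sprayed with the active ingredient, formulated in acetone and dimethylformamide plus emulsifier and diluted with water containing emulsifier.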

[7] = test system: green peach aphid (Myzus persicae); test: Myzus persicae oral test; conditions: 120 h
Outline: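 Compound was dissolved in acetone, diluted with water and mixed into IPL41 insect medium with sugar under a parafilm seal. A mixed aphid population fed through the parafilm, and mortality (%) was scored after 5 days.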

[8] = test system: fall armyworm larvae (Spodoptera frugiperda); test: Spodoptera frugiperda spray test (maize leaf sections); conditions: 168 h
Outline: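 Percent kill of Spodoptera frugiperda caterpillars read at day 7. Larvae placed on dried Zea mays leaf pieces previously sprayed with test preparation, made from acetone plus DMF and diluted with emulsifier-containing water (1000 ppm).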

[9] = test system: adult mosquitoes Aedes aegypti strain MONHEIM; test: Aedes aegypti test (AEDSAE surface treatment & contact assay); conditions: 24 hours after contact, read-out: efficacy (mortality); for mortality at 20 mg/m2: surface concentration 20 mg/m^2, 30 min exposure
Outline: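 Test compound in acetone (2 mg/ml) with 2000 ppm rapeseed oil methyl ester was dried onto a glazed tile. Adult Aedes aegypti MONHEIM were exposed to the treated surface for 30 minutes. Percent mortality was scored 24 hours after contact.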

[10] = test system: adult flies Musca domestica strain WHO-N; test: Musca domestica test (MUSCDO surface treatment & contact assay); conditions: 24 hours after contact, read-out: efficacy (mortality); for mortality at 4 mg/m2: surface concentration 4 mg/m^2, 30 min exposure; for mortality at 20 mg/m2: surface concentration 20 mg/m^2, 30 min exposure
Outline: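 Percent kill read 24 h post-contact, after adult flies (strain WHO-N) spent 30 min on a glazed tile treated with test solution (acetone, 2 mg/ml, plus 2000 ppm rapeseed oil methyl ester) and dried.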

[11] = test system: green peach aphid (Myzus persicae); test: Myzus persicae spray test; conditions: foliar, 120 h, Chinese cabbage leaf disks, after 5 days
Outline: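 Percent mortality read 5 days after spraying, where 100% is total kill and 0% none. The spray contained compound in acetone plus dimethylformamide, diluted with 1000 ppm emulsifier water. It was applied to Brassica pekinensis leaf disks carrying mixed-instar green peach aphids.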

[12] = test system: adult mosquitoes Anopheles funestus strain FUMOZ-R; test: Anopheles funestus test (ANPHFU surface treatment & contact assay); conditions: 24 hours after contact, read-out: efficacy (mortality)
Procedure: Anopheles funestus Test (ANPHFU Surface Treatment & Contact Assay) • Solvent: Aceton+2000 ppm rapeseed oil methyl ester (RME)
In order to produce a sufficient, active ingredient containing solution it is necessary to solve the test compound in the solvent-mix (acetone at 2 mg/ml/RME 2000 ppm). This solution is pipetted onto a glazed tile and after evaporation of the acetone, adult mosquitoes of the species Anopheles funestus strain FUMOZ-R (Hunt et al., Med. Vet. Entomol. 2005 September; 19(3): 271-275) are placed onto the dried surface. The exposure time is 30 minutes.
Mortality in percent (%) is determined 24 hours after contact of the insects to the treated surface. 100% mortality means that all tested insects are dead, whereas 0% means that no insect died.

[13] = test system: larvae of the southern green stink bug (Nezara viridula); test: Nezara viridula spray test; conditions: in Hordeum vulgare, 96 h
Outline: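 Mortality (%) of stink bug larvae on treated barley (Hordeum vulgare) was scored 4 days after infestation. Test solutions came from an acetone/DMF concentrate diluted with water containing 1000 ppm emulsifier and were sprayed onto plants before larvae were added.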

[14] = test system: larvae of the southern green stink bug (Nezara viridula); test: Nezara viridula spray test (NEZAVI), comparison; conditions: 96 h, 500 g ai/ha, 4 dat, read-out: % Efficacy
Procedure: Nezara viridula—Spray Test (NEZAVI) • Solvent: 78.0 parts by weight of acetone • 1.5 parts by weight of dimethylformamide • Emulsifier: alkylarylpolyglycol ether
(§1) To produce a suitable preparation of active compound, 1 part by weight of active compound is mixed with the stated amount of solvent, and the concentrate is diluted with water, containing an emulsifier concentration of 1000 ppm, to the desired concentration. Further test concentrations are prepared by dilution with emulsifier containing water.
Barley plants (Hordeum vulgare) are sprayed with a test solution containing the desired concentration of the active ingredient and are infested with larvae of the southern green stink bug (Nezara viridula).
After the specified period of time, mortality in % is determined in comparison to the untreated control plant. 100% means all the stink bugs have been killed; 0% means none of the stink bugs have been killed.

[15] = test system: fall armyworm larvae (Spodoptera frugiperda); test: Spodoptera frugiperda spray test (SPODFR, maize leaf sections), comparison; conditions: 168 h, 7 dat, read-out: % Efficacy
Procedure: Spodoptera fruaiperda—Spray Test (SPODFR) • Solvent: 78.0 parts by weight acetone • 1.5 parts by weight dimethylformamide • Emulsifier: alkylarylpolyglycol ether
as §1, with “solvents” for “solvent,”, “and” for “and the concentrate”
Maize (Zea mays) leaf sections are sprayed with a preparation of the active ingredient of the desired concentration. Once dry, the leaf sections are infested with fall armyworm larvae (Spodoptera frugiperda).
After the specified period of time, mortality in % is determined in comparison to the untreated control plant. 100% means all caterpillars have been killed and 0% means none of the caterpillars have been killed.

[16] = test system: adult cat fleas (Ctenocephalides felis); test: Ctenocephalides felis in-vitro contact test, adult cat flea; conditions: 5 μg/cm^2 (=500 g/ha), after 48 hours
Outline: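 After 48 h of room-temperature exposure in tubes whose walls carried dried compound residue (5 μg/cm^2, from 900 ppm acetone solution), adult cat fleas (5-10 per tube) were heat-challenged at 45-50° C up to 5 min. Fleas unable to climb away were counted dead or moribund, expressed as % efficacy.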

[17] = test system: brown planthopper (Nilaparvata lugens); test: Nilaparvata lugens spray test; conditions: 96 h, rice plants, after 4 days
Procedure: Nilaparvata lugens—Spray Test • Solvent: 78.0 parts by weight of acetone • 1.5 parts by weight of dimethylformamide • Emulsifier: alkylarylpolyglycol ether
as §1, with “solvents” for “solvent,”, “and” for “and the concentrate”
Rice plants (Oryza sativa) are sprayed with a preparation of the active ingredient of the desired concentration and the plants are infested with the brown planthopper (Nilaparvata lugens).
After 4 days mortality in % is determined. 100% means all planthoppers have been killed and 0% means none of the planthoppers have been killed.

[18] = surface concentration 4 mg/m^2, 30 min exposure

Structure (SMILES) | pest or weed control at 5 µg/cm2 [1] | pest or weed control at 0.004 mg [3] | mortality at 100 ppm [4] | pest or weed control at 5 µg/cm2, 500 g/ha [5] | pest or weed control at 32 µg/disc, 100 g/ha [6] | mortality at 4 ppm [7] | mortality at 100 g/ha [8] | mortality at 20 mg/m2 [9] | mortality at 4 mg/m2 [10] | mortality at 20 mg/m2 [10] | mortality at 100 g/ha [11] | mortality at 500 g/ha [13] | stink bug mortality at 500 g/ha [14] | also measured
Cc1nc([C@H](C)NC(=O)c2cc(Br)cc(C(F)(F)F)c2)n(-c2ncc(C#N)s2)n1 [I-14] | 100% | 100% | 100% | 100% | 100% | 100% | 100% | 80 to 100% | 90 to 100% | 80 to 100% |  |  |  | efficacy (infertile eggs) [2]: 100%
CC(NC(=O)c1cc(OC(F)F)cc(OC(F)F)c1)c1ncnn1-c1ncc(C#N)s1 (stereo not shown) [I-31] | 100% | 100% | 100% | 100% | 100% | 100% | 100% | 80 to 100% | 90 to 100% | 80 to 100% | 90% |  |  | mortality at 4 mg/m2 [9, 18]: 80 to 100%; mortality at 4 mg/m2 [12, 18]: 80 to 100%
C[C@H](NC(=O)c1cc(Cl)cc(S(=O)(=O)C(F)(F)F)c1)c1ncnn1-c1ncc(C#N)s1 [I-60] |  |  |  |  | 100% |  | 100% |  |  |  |  | 100% | 100% | larval mortality at 20 g/ha ([15]; 20 g ai/ha): 100%; larval mortality at 100 g/ha ([15]; 100 g ai/ha): 100%
C[C@H](NC(=O)c1cc(C(F)(F)F)cc(C(F)(F)F)c1)c1ncnn1-c1ncc(C(=O)N(C)C)s1 [I-64] | 100% |  |  | 100% | 100% |  | 100% | 80 to 100% | 90 to 100% | 80 to 100% | 100% | 100% |  | efficacy (fleas dead or moribund) [16]: 100%; mortality at 100 g/ha ([17]; 100 g/ha): 90%; mortality at 500 g/ha ([17]; 500 g/ha): 90%; mortality at 20 mg/m2 ([12]; surface concentration 20 mg/m^2, 30 min exposure): 80 to 100%
C[C@H](NC(=O)c1cc(Cl)cc(S(=O)(=O)C(F)(F)F)c1)c1ncnn1-c1nccs1 [I-077, reference compound] |  |  |  |  |  |  |  |  |  |  |  |  | 0% | Emax at 20 g/ha ([15]; 20 g ai/ha): 33%; Emax at 100 g/ha ([15]; 100 g ai/ha): 67%
